From the CheMixHub viscosity set

Assay: xn = mol fraction of the nth substance listed

CC(=O)O + CC#N
viscosity [mPa·s], 101 kPa
Conditions | x1 = 0.0924 | x1 = 0.1864 | x1 = 0.282 | x1 = 0.3793 | x1 = 0.4782 | x1 = 0.5789 | x1 = 0.6814 | x1 = 0.7857 | x1 = 0.8919
298.15 K | 0.3742 | 0.4162 | 0.4785 | 0.558 | 0.6509 | 0.7533 | 0.8608 | 0.9682 | 1.07
308.15 K | 0.3267 | 0.3622 | 0.4177 | 0.4891 | 0.5719 | 0.6612 | 0.7513 | 0.8362 | 0.9088
318.15 K | 0.2808 | 0.3168 | 0.3759 | 0.4515 | 0.5363 | 0.6224 | 0.7005 | 0.7609 | 0.7925

ClCCCl + CC#N
101.33 kPa
Conditions | viscosity [mPa·s]
298 K, x2 = 0.0717 | 0.754
298 K, x2 = 0.1909 | 0.698
298 K, x2 = 0.2938 | 0.65
298 K, x2 = 0.3884 | 0.607
298 K, x2 = 0.4948 | 0.558
298 K, x2 = 0.5896 | 0.515
298 K, x2 = 0.6957 | 0.468
298 K, x2 = 0.7981 | 0.425
298 K, x2 = 0.8955 | 0.385
303.15 K, x2 = 0.113 | 0.674
303.15 K, x2 = 0.1744 | 0.6458
303.15 K, x2 = 0.2643 | 0.6069
303.15 K, x2 = 0.3563 | 0.5679
303.15 K, x2 = 0.4072 | 0.5471
303.15 K, x2 = 0.543 | 0.4921
303.15 K, x2 = 0.6825 | 0.4372
303.15 K, x2 = 0.8073 | 0.3903
303.15 K, x2 = 0.8792 | 0.3647
303.15 K, x2 = 0.9181 | 0.3513

CCNc1ccccc1 + CC(=O)c1ccccc1
303.15 K, 100 kPa
Conditions | viscosity [mPa·s]
x1 = 0.0651 | 1.524
x1 = 0.1424 | 1.538
x1 = 0.2225 | 1.554
x1 = 0.2977 | 1.568
x1 = 0.3611 | 1.581
x1 = 0.4487 | 1.599
x1 = 0.5162 | 1.614
x1 = 0.5869 | 1.631
x1 = 0.6407 | 1.644
x1 = 0.7083 | 1.662
x1 = 0.7798 | 1.681
x1 = 0.8256 | 1.694
x1 = 0.9025 | 1.715

ClCCl + CC(=O)c1ccccc1
298.15 K, 101 kPa
Conditions | viscosity [mPa·s]
x2 = 0.0728 | 0.5046
x2 = 0.1501 | 0.5598
x2 = 0.2324 | 0.6209
x2 = 0.3201 | 0.6967
x2 = 0.4139 | 0.7804
x2 = 0.5144 | 0.8931
x2 = 0.6224 | 1.036
x2 = 0.7386 | 1.212
x2 = 0.8641 | 1.422

CCC(C)Br (centres undefined) + CC(C)(C)O
viscosity [mPa·s], 101.3 kPa
Conditions | x1 = 0.05 | x1 = 0.102 | x1 = 0.2043 | x1 = 0.3044 | x1 = 0.4041 | x1 = 0.5032 | x1 = 0.6203 | x1 = 0.7036 | x1 = 0.8056 | x1 = 0.9064
298.15 K | 3.175 | 2.363 | 1.519 | 1.152 | 0.9576 | 0.8183 | 0.7087 | 0.6532 | 0.6048 | 0.5718
313.15 K | 1.651 | 1.36 | 0.9969 | 0.8102 | 0.7146 | 0.6337 | 0.5665 | 0.5317 | 0.4987 | 0.4777

CCNc1ccccc1 + CC(C)(C)O
viscosity [mPa·s], 101 kPa
Conditions | 303.15 K | 308.15 K
x1 = 0.0789 | 3.287 | 2.6
x1 = 0.1325 | 3.222 | 2.566
x1 = 0.1974 | 3.139 | 2.522
x1 = 0.2562 | 3.061 | 2.478
x1 = 0.3315 | 2.957 | 2.414
x1 = 0.4056 | 2.848 | 2.343
x1 = 0.4868 | 2.717 | 2.256
x1 = 0.5626 | 2.59 | 2.167
x1 = 0.6195 | 2.488 | 2.096
x1 = 0.6889 | 2.359 | 2.003
x1 = 0.7514 | 2.241 | 1.916
x1 = 0.8214 | 2.102 | 1.815
x1 = 0.8914 | 1.96 | 1.71
